# Measured values: patent US20090047567A1, “Biofuel cell, method for producing the same, electronic apparatus, enzyme-immobilized electrode, and method for producing the same” (SONY CORPORATION, priority 2007, published 2009)
# How the values were obtained:
# diaphorase (DI) = assay: Michaelis constant Km and rate constant kcat of the enzymatic reaction using the electron mediator as a substrate (cyclic voltammetry in a solution containing NADH and DI); assay type: biochemical, Bacillus stearothermophilus; conditions: for ten times Km: 10 x Km of the electron mediator for DI, read-out: ten times the determined Km; for Km / kcat: electron mediator as substrate of DI, solution containing sufficient amounts of NADH and DI
# From the text: GDH (EC1. 1. 1. 47) derived from Bacillus sp. was used as GDH, and DI(EC. 1. 6. 99. −) derived from Bacillus stearothermophilus was used as DI. Both were purchased from Amano Enzyme Inc. (Japan) and directly used without further purification. NADH, poly-L-lycine (PLL, Mw=about 93,800), and sodium polyacrylate (PAANa, Mw=about 240,000) were purchased from Sigma-Aldrich Co. VK3 was purchased from Nacalai Tesque, Inc. (Japan).
# Then, the method for measuring the Michaelis constant Km and rate constant kcat of the enzymatic reaction using the electron mediator as a substrate is described.
# The following electrochemical equation is established between the Michaelis constant Km and rate constant kcat (R. Matsumoto et al, J. Electroanal. Chem. 535 (2002)37).
# wherein Is^lim is the current value of a flat portion of a curve obtained by cyclic voltammetry, nM is the number of electrons of the electron mediator, ns is the number of electrons of the substrate, F is the Faraday constant, A is the electrode surface area, DM is the diffusion constant of the substrate, [E] is the enzyme concentration, and [M]* is the concentration of the electron mediator.
# [1] = Redox potential of the electron mediator by cyclic voltammetry in solution; assay type: physicochemical
# [2] = Cyclic voltammetry of the GC bio-anode with immobilized VK3, no glucose; assay type: physicochemical; conditions: immobilized VK3 on GC bio-anode; 0.1 M phosphate buffer pH 7.0, glucose absent; vs. Ag|AgCl
# Procedure: The surface of a glassy carbon (GC) electrode of 3 mm in diameter which was purchased from BAS Inc. was polished with alumina powder having a particle diameter of 0.05 μm and washed with distilled water. Then, GDH, NADH, DI, and VK3 were immobilized on the GC electrode by a polyion complex method using electrostatic interaction between PAAcNa as polyanion and poly-L-lycine (PLL) as polycation according to the following procedures.
# On the GC electrode, 10 μl of an aqueous PLL solution (2% (w/v)), 8 μl of a GDH solution (1 U/μl in a 0.1 M phosphate buffer solution (NaH2PO4 buffer solution) (pH 7.0)), 8 μl of a DI solution (10 U/μl in a phosphate buffer solution), 2 μl of a NADH solution (0.9 μmol/μl in a phosphate buffer solution), 4 μl of a VK3 solution (0.29 M in acetone), and 4 μl of an aqueous PAAcNa solution (0.066% (w/v)) were added in that order. After each of the addition steps, drying was performed at 40° C. for 10 minutes. Before electrochemical measurement, the GC electrode (referred to as a “GC bio-anode” hereinafter) on which an immobilized layer had been formed as described above was rinsed with distilled water for 5 minutes.
# Cyclic voltammetry (CV) was performed using the GC bio-anode as a working electrode. […]
ten times Km (diaphorase (DI)) [µM],Km (diaphorase (DI)) [µM],kcat (diaphorase (DI)) [s⁻¹],E^o′ vs Ag|AgCl [1],middle point potential of oxidation and reduction waves [2] [V],Structure (SMILES)
4,0.4,630,−0.22,−0.17,"CC1=CC(=O)c2ccccc2C1=O [VK3, 2-methyl-1,4-naphthoquinone]"
20,2,400,−0.26,–,"NC1=C(C(=O)O)C(=O)c2ccccc2C1=O [ACNQ, 2-amino-3-carboxy-1,4-naphthoquinone]"

Structure (SMILES),ten times Km (diaphorase (DI)) [µM],Km (diaphorase (DI)) [µM],kcat (diaphorase (DI)) [s⁻¹],E^o′ vs Ag|AgCl [1],middle point potential of oxidation and reduction waves [2] [V]
"NC1=CC(=O)c2ccccc2C1=O [ANQ, 2-amino-1,4-naphthoquinone]",360,36,310,−0.35,–
